In ChEMBL document CHEMBL4257081, “Inhibitors of the kynurenine pathway” (2016):
The source made the active and inactive calls. The calls are words filed in the database; no cut-off is given here.

How the values were obtained:
Mus musculus [1] = assay: Reduction in kynurenine levels in tumor of Balb/C mouse implanted with mouse CT26 cells at 50 mg/kg, po bid for 4 days measured 2 hrs post last dose by LC/MS/MS analysis relative to control; type: functional; parameters: scale not given: the % may be the effect or the level left
Mus musculus [2] = assay: Reduction in plasma kynurenine levels in Balb/C mouse implanted with mouse CT26 cells at 50 mg/kg, po bid for 4 days measured 2 hrs post last dose by LC/MS/MS analysis relative to control; type: functional; parameters: scale not given: the % may be the effect or the level left
[3] = target: T1, Indoleamine 2,3-dioxygenase 1 (Homo sapiens, UniProt P14902); assay: Inhibition of recombinant human N-terminal His-tagged IDO1 (1 to 403 residues) expressed in Escherichia coli assessed as reduction in kynurenine formation using tryptophan as substrate measured by LC/MS/MS analysis
T1 sequence (P14902 whole entry, the tested form may be a part): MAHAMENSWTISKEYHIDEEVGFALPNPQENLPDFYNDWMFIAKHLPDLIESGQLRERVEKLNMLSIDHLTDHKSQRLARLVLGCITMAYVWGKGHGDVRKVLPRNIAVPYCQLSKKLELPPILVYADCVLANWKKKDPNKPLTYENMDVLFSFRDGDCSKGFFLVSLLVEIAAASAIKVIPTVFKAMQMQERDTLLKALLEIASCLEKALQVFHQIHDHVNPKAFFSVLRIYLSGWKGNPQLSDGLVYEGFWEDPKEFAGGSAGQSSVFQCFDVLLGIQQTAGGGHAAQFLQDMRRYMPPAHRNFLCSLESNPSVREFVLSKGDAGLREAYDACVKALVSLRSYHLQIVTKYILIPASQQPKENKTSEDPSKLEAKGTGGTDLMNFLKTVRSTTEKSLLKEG

[4] = target: Tryptophan 2,3-dioxygenase (Homo sapiens, UniProt P48775); assay: Inhibition of recombinant human TDO2 expressed in CHOK1 cells assessed as reduction in kynurenine formation using L-tryptophan as substrate measured after 2 hrs by LC/MS/MS analysis; type: cell-based
Tryptophan 2,3-dioxygenase, sequence (P48775 whole entry): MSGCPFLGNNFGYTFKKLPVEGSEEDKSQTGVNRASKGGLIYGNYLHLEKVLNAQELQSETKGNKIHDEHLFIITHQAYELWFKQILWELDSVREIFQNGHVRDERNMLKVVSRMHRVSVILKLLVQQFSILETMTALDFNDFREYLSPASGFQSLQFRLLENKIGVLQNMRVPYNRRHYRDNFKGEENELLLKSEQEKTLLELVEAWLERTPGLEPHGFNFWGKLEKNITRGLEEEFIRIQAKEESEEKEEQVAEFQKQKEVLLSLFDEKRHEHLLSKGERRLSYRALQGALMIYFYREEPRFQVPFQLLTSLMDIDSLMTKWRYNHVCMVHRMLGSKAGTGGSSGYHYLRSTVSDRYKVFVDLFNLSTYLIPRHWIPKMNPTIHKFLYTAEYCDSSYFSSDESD

Mus musculus [5] = assay: In vivo inhibition of IDO1 in po dosed LPS-induced C57BL/6 mouse assessed as reduction in plasma kynurenine levels measured after 2 to 48 hrs by LC/MS/MS analysis; type: functional
CT26 [6] = assay: Antitumor activity against mouse CT26 cells implanted in Balb/C mouse assessed as reduction in tumor growth at 60 mg/kg, po bid measured on day 1,4,6,9,11 and 14 relative to control; type: functional; parameters: scale not given: the % may be the effect or the level left
Mus musculus [7] = assay: Reduction in plasma kynurenine levels in Balb/C mouse implanted with mouse CT26 cells at 60 mg/kg, po bid measured after 14 days by LC/MS/MS analysis relative to control; type: functional; parameters: scale not given: the % may be the effect or the level left
[8] = target: T1, Indoleamine 2,3-dioxygenase 1; assay: Inhibition of IDO1 in IFNgamma-stimulated human HeLa cells assessed as reduction in kynurenine formation using L-tryptophan as substrate measured after 15 mins by UV-vis HPLC analysis
Mus musculus [9] = assay: Reduction in kynurenine levels in tumor of Balb/C mouse implanted with mouse CT26 cells at 20 mg/kg, po bid for 4 days measured 2 hrs post last dose by LC/MS/MS analysis relative to control; type: functional; parameters: scale not given: the % may be the effect or the level left
Mus musculus [10] = assay: Reduction in plasma kynurenine levels in Balb/C mouse implanted with mouse CT26 cells at 20 mg/kg, po bid for 4 days measured 2 hrs post last dose by LC/MS/MS analysis relative to control; type: functional; parameters: scale not given: the % may be the effect or the level left
CT26 [11] = assay: Antitumor activity against mouse CT26 cells implanted in Balb/C mouse assessed as reduction in tumor growth at 50 mg/kg, po bid measured on day 1,4,6,9,11 and 14 relative to control; type: functional; parameters: scale not given: the % may be the effect or the level left
Mus musculus [12] = assay: Reduction in plasma kynurenine levels in Balb/C mouse implanted with mouse CT26 cells at 50 mg/kg, po bid measured after 14 days by LC/MS/MS analysis relative to control; type: functional; parameters: scale not given: the % may be the effect or the level left
CT26 [13] = assay: (§1) Synergistic antitumor activity against mouse CT26 cells implanted in Balb/c mouse assessed as reduction in tumor volume at 50 mg/kg, po bid for 35 days starting from day 5 post doxorubucin administration followed by second doxorubicin dosing at 3 weeks post doxorubucin dose measured 4 hrs post last dose; type: functional, organism-based
CT26 [14] = assay: Synergistic antitumor activity against mouse CT26 cells implanted in Balb/c mouse assessed as reduction in time of tumor progression at 50 mg/kg, po bid for 35 days starting from day 5 post doxorubucin administration followed by second doxorubicin dosing at 3 weeks post doxorubucin dose; type: functional, organism-based
CT26 [15] = assay: Antitumor activity against mouse CT26 cells implanted in Balb/C mouse assessed as reduction in tumor growth at 40 mg/kg, po bid measured on day 1,4,6,9,11 and 14; type: functional, organism-based
Mus musculus [16] = assay: Reduction in plasma kynurenine levels in Balb/C mouse implanted with mouse CT26 cells at 40 mg/kg, po bid measured after 14 days by LC/MS/MS analysis relative to control; type: functional; parameters: scale not given: the % may be the effect or the level left
[17] = Ratio of drug level in brain to plasma in Sprague-Dawley rat at 10 mg/kg, iv administered as single dose measured after 0.5 hrs by LC/MS/MS analysis; type: ADME, organism-based; settings: brain and plasma, read-out: BPR
[18] = Ratio of drug level in brain to plasma in Sprague-Dawley rat at 10 mg/kg, iv administered as single dose measured after 1 hr by LC/MS/MS analysis; type: ADME, organism-based; settings: brain and plasma, read-out: BPR
[19] = Ratio of drug level in brain to plasma in Sprague-Dawley rat at 10 mg/kg, iv administered as single dose measured after 3 hrs by LC/MS/MS analysis; type: ADME, organism-based; settings: brain and plasma, read-out: BPR
CT26 [20] = assay: Antitumor activity against mouse CT26 cells implanted in Balb/C mouse assessed as reduction in tumor growth at 75 mg/kg, po bid measured on day 1,4,6,9,11 and 14 relative to control; type: functional; parameters: scale not given: the % may be the effect or the level left
Mus musculus [21] = assay: Reduction in plasma kynurenine levels in Balb/C mouse implanted with mouse CT26 cells at 75 mg/kg, po bid measured after 14 days by LC/MS/MS analysis relative to control; type: functional; parameters: scale not given: the % may be the effect or the level left
CT26 [22] = assay: as §1, with “volume at 75 mg/kg, po” for “volume at 50 mg/kg, po”, “weeks post doxorubicin dose measured” for “weeks post doxorubucin dose measured”; type: functional, organism-based
CT26 [23] = assay: Synergistic antitumor activity against mouse CT26 cells implanted in Balb/c mouse assessed as reduction in time of tumor progression at 75 mg/kg, po bid for 35 days starting from day 5 post doxorubucin administration followed by second doxorubicin dosing at 3 weeks post doxorubicin dose; type: functional, organism-based

SMILES	Activity (Mus musculus [1])	Activity (Mus musculus [2])	inhibition (INH) (Mus musculus [5])	also measured
CNC(=O)c1cc(-c2nccc3c(Nc4ccc(F)c(Cl)c4)c(N)oc23)ccn1	>50%	>50%	–	–
Nc1sc2ccccc2c1Nc1ccccc1	–	–	–	IC50 [3]: 200 to 1000 nM; IC50 [4]: < 500 nM
Nc1oc2cnc(F)cc2c1Nc1ccc(F)c(Cl)c1	<25%	>=25 - 50%	>50%	–
Nc1oc2c(-c3ccccc3)nc(Oc3ccccc3)cc2c1Nc1ccc(F)c(Cl)c1	–	–	–	IC50 [3]: > 1000 nM; IC50 [4]: > 2000 nM
Nc1oc2c(-c3ccc(F)c(F)c3F)nccc2c1Nc1ccc(F)c(Cl)c1	–	–	>50%	–
Nc1sc2cnccc2c1Nc1ccc(F)c(Cl)c1	–	–	<25%	–
Nc1oc2c(Cl)nccc2c1Nc1ccc(F)c(Cl)c1	>=25 - 50%	>=25 - 50%	>50%	Activity (CT26 [6]): 26 - 38%; Activity (Mus musculus [7]): 40 - 50%
Nc1oc2cnc(F)cc2c1Nc1ccc(F)c(C(F)(F)F)c1	–	–	–	IC50 [8]: < 200 nM; IC50 [4]: < 500 nM
N#Cc1nccc2c(Nc3ccc(F)c(Cl)c3)c(N)oc12	<25%	>=25 - 50%	>50%	–
Nc1sc2ccccc2c1Nc1cccc(Cl)c1	–	–	>=25 - 50%	–
COc1ccc(-c2nccc3c(Nc4ccc(F)c(Cl)c4)c(N)oc23)cc1	–	–	>50%	–
Cc1cc(-c2nccc3c(Nc4ccc(F)c(Cl)c4)c(N)oc23)ccn1	>50%	>50%	>50%	–
Nc1oc2c(-c3ccnc(N4CCOCC4)c3)nccc2c1Nc1ccc(F)c(Cl)c1	>=25 - 50%	>50%	>50%	–
CCOC(=O)Nc1oc2cnccc2c1N(C(=O)OCC)c1ccc(F)c(Cl)c1	>50%	>50%	>50%	–
CCOC(=O)Nc1oc2cnccc2c1Nc1ccc(F)c(Cl)c1	–	–	–	IC50 [3]: > 1000 nM; IC50 [4]: > 2000 nM
O=C(Nc1oc2cnccc2c1N(C(=O)OCc1ccccc1)c1ccc(F)c(Cl)c1)OCc1ccccc1	–	–	>50%	–
Nc1oc2c(-c3ccccc3Cl)nccc2c1Nc1ccc(F)c(Cl)c1	–	–	>=25 - 50%	IC50 [8]: < 200 nM; IC50 [4]: < 500 nM
Cc1cc(-c2nccc3c(Nc4cccc(C(F)(F)F)c4)c(N)oc23)ccn1	–	–	>50%	–
C#Cc1cccc(Nc2c(N)oc3c(CC)nccc23)c1	–	–	>50%	–
Cc1cc(-c2nccc3c(Nc4ccc(F)c(Cl)c4)c(N)oc23)cc(C)n1	>=25 - 50%	>=25 - 50%	>50%	–
C#Cc1cccc(Nc2c(N)oc3c(-c4ccccc4)nccc23)c1	–	–	>50%	–
Nc1oc2cnccc2c1Nc1cccc(C(F)(F)F)c1	–	–	>50%	Activity (Mus musculus [9]): >=25 - 50%; Activity (Mus musculus [10]): >50%

SMILES	Activity (Mus musculus [1])	Activity (Mus musculus [2])	inhibition (INH) (Mus musculus [5])	also measured
CCOC(=O)Nc1oc2c(C#N)nccc2c1N(C(=O)OCC)c1ccc(F)c(Cl)c1	<25%	>=25 - 50%	–	–
Nc1oc2c(-c3ccc(F)cc3)nccc2c1Nc1ccc(F)c(Cl)c1	–	–	>50%	–
Nc1sc2c(-c3ccncc3)cccc2c1Nc1ccc(F)c(Cl)c1	–	–	>=25 - 50%	–
Nc1oc2c(-c3ccncc3)nccc2c1Nc1ccc(F)c(F)c1	>50%	>50%	>50%	Activity (CT26 [11]): 26 - 38%; Activity (Mus musculus [12]): 40 - 50%; Activity (CT26 [13]): Active; Activity (CT26 [14]): Active
COc1ccccc1-c1nccc2c(Nc3ccc(F)c(Cl)c3)c(N)oc12	<25%	<25%	–	–
Nc1oc2cnccc2c1Nc1ccc(F)c(Br)c1	–	–	>50%	–
N#Cc1nccc2c(Nc3ccc(F)c(C(F)(F)F)c3)c(N)oc12	<25%	>=25 - 50%	>50%	–
Nc1oc2c(F)nc(F)cc2c1Nc1ccc(F)c(Cl)c1	>50%	>=25 - 50%	>=25 - 50%	–
N#Cc1ccc(-c2nccc3c(Nc4ccc(F)c(Cl)c4)c(N)oc23)cc1	–	–	>50%	–
Cc1cc(-c2nccc3c(Nc4ccc(F)cc4)c(N)oc23)ccn1	–	–	>50%	–
Nc1oc2cnccc2c1Nc1ccc(F)c(Cl)c1	–	–	>50%	Activity (CT26 [15]): Active; Activity (Mus musculus [16]): 40 - 50%; Kp at 0.5 h [17]: 9.8; Kp at 1 h [18]: 10.7; Kp at 3 h [19]: 6
Nc1sc2ccccc2c1Nc1ccc(F)c(Cl)c1	–	–	>=25 - 50%	–
Nc1oc2c(-c3ccncc3)nccc2c1Nc1ccc(F)c(Cl)c1	–	–	>50%	Activity (CT26 [20]): 26 - 38%; Activity (Mus musculus [21]): 40 - 50%; Activity (CT26 [22]): Active; Activity (CT26 [23]): Active; Kp at 0.5 h [17]: 0.67; Kp at 1 h [18]: 0.47; Kp at 3 h [19]: 0.64
Nc1oc2c(-c3ccncc3)nccc2c1Nc1ccc(F)c(C(F)(F)F)c1	–	–	>50%	–
COCCNC(=O)c1ccc(-c2nccc3c(Nc4ccc(F)c(Cl)c4)c(N)oc23)cc1	–	–	>50%	–
Nc1oc2c(-c3ccncc3)nc(F)cc2c1Nc1ccc(F)c(F)c1	>50%	>=25 - 50%	>50%	–
Cc1cc(-c2nccc3c(Nc4ccc(F)c(F)c4)c(N)oc23)ccn1	>50%	>50%	>50%	–
Nc1oc2c(-c3cccc4ccccc34)nccc2c1Nc1ccc(F)c(Cl)c1	>50%	>50%	>=25 - 50%	–
Nc1oc2c(-c3ccc(F)c(F)c3)nccc2c1Nc1ccc(F)c(Cl)c1	–	–	>=25 - 50%	–
Nc1oc2c(-c3ccncc3)nc(F)cc2c1Nc1ccc(F)c(Cl)c1	>=25 - 50%	<25%	>50%	–
Nc1oc2cnccc2c1Nc1ccc(F)c(F)c1	–	–	>50%	IC50 [3]: 200 to 1000 nM; IC50 [4]: 500 to 2000 nM
Nc1oc2cnc(Cl)cc2c1Nc1ccc(F)c(Cl)c1	–	–	>50%	–
